In paper PMC9323911, “Comparative Metabolomics Study of the Impact of Articaine and Lidocaine on the Metabolism of SH-SY5Y Neuronal Cells” (Metabolites, 2022):
Where a name gives a salt, the structure may show the parent alone. Read-outs that look alike come from different tables or passages of the source.

Tests used:
SH-SY5Y cells [1] = experiment: 1H NMR metabolic profiling of cell aqueous extracts; assay type: cell-based, human; settings: for 2-Ketovaline, variation in relation to control / 2-Oxoisoleucine, variation in relation to control / ATP + ADP, variation in relation to control / Alanine, variation in relation to control / Asparagine, variation in relation to control / Aspartate, variation in relation to control / Creatine, variation in relation to control / Cystathionine, variation in relation to control / Formate, variation in relation to control / Glutamate, variation in relation to control / Glutamine, variation in relation to control / Glycerophosphocholine, variation in relation to control / Glycine, variation in relation to control / Histidine, variation in relation to control / Isobutyrate, variation in relation to control / Isoleucine, variation in relation to control / Lactate, variation in relation to control / Leucine, variation in relation to control / NAD+, variation in relation to control / Panthothenic, variation in relation to control / Phenylalanine, variation in relation to control / Phosphocholine, variation in relation to control / Phosphocreatine, variation in relation to control / Proline, variation in relation to control / UDP-GlcNAc, variation in relation to control / Valine, variation in relation to control / beta-Alanine, variation in relation to control / myo-Inositol, variation in relation to control: aqueous extract
Experimental: (§1) Afterward, the medium was collected and the dishes washed with cold PBS, immediately before the solvent extraction procedure described below. Unexposed cells were used as controls. Each assay comprised duplicates of each condition and three independent assays were performed, giving a total of 6 replicates per condition.
(§2) The culture medium was collected from each plate (including cell-free medium incubated under the same conditions) in conical tubes and centrifuged at 1000× g for 10 min. Furthermore, 300 µL of the supernatant were collected for protein precipitation, as described by Kostidis et al.. Briefly, 600 µL of 100% methanol (v/v) at −80 °C were added to the collected supernatant ([…]). […] The supernatant was transferred to another tube and vacuum dried (SpeedVac, Eppendorf, Hamburg, Germany). For extracting cellular metabolites, a biphasic extraction protocol (methanol:chloroform:water; 1:1:0.7) was used as previously described. The resulting polar extracts were dried under vacuum in a Speedvac concentrator, and the lipophilic extracts were dried under a nitrogen flow. All extracts were stored at −80 °C prior to NMR analysis.
(§3) For NMR analysis, dried aqueous and lipid extracts were dissolved, respectively, in 600 μL of deuterated phosphate buffer (PBS 100 mM, pH 7.4) containing 0.1 mM 3-(trimethylsilyl) propionic acid (TSP-d4), and 600 μL of deuterated chloroform containing 0.03% tetramethylsilane (TMS). […] Two-dimensional NMR spectra, namely, ^1H-^1H TOCSY, J-resolved and ^1H-^13C HSQC spectra, were also recorded for selected samples to aid metabolite identification. Signal assignment was based on matching 1D and 2D spectral information to reference spectra available in Chenomx 9.0 (Edmonton, AB, Canada), BBIOREFCODE-2–0–0 (Bruker Biospin, Rheinstetten, Germany) and HMDB.
Principal Component Analysis (PCA) and Partial Least Squares-Discriminant Analysis (PLS-DA) were applied and the results were visualized through factorial co-ordinates (‘scores’) and factorial contributions (‘loadings’) colored according to variable importance to the projection (VIP). For PLS-DA models, Q^2 and R^2 values, respectively reflecting predictive capability and explained variance, obtained from sevenfold internal cross validation, were used to assess the robustness of group discrimination.
(§4) To provide a quantitative measurement of metabolic variations, spectral integration and total area normalization of selected signals (vide Supplementary Table S1) were carried out in Amix-Viewer 3.9.15 (Bruker Biospin, Rheinstetten, Germany). For each metabolite, the percentage of variation (or fold change) in exposed samples was calculated relative to respective controls, along with the effect size (ES) and statistical significance (p-value). The variations with larger magnitude (|ES| > 0.8) were expressed in a heatmap.

SH-SY5Y cells [2] = experiment: 1H NMR metabolic profiling of culture medium (consumption/excretion); assay type: cell-based, human; settings: vs control
Experimental: as §1, §2, §3, §4

[3] = tested on: SH-SY5Y human neuroblastoma cells; experiment: resazurin cell viability assay; assay type: cell-based; settings: for IC50: Homo sapiens, SH-SY5Y, read-out: IC50 (cell viability)
Experimental: Undifferentiated SH-SY5Y human neuroblastoma cells (ATCC® CRL-2266) were cultured in DMEM:F12 medium supplemented with 10% FBS and 1% antibiotic (100 IU/mLof penicillin and 100 μg/mL of streptomycin sulfate). Cells were grown in 75 cm^2 bottles and incubated at 37 °C under a humidified atmosphere with 5% CO2 for 48 h, until reaching semiconfluency. All experiments were performed on cells between passages 4 to 8.
To assess cell viability, the resazurin test was used. This assay evaluates the ability of viable cells to reduce resazurin (blue color) to a fluorescent, pink-colored compound, resorufin. Briefly, the cells were plated in a 96-well plate 24 h before treatment, at a density of 4 × 10^4 cells/mL. […] Each LA was solubilized in complete DMEM:F12 medium. Subsequently, the medium was removed, the wells were washed with 5 mM PBS and the cells were incubated with 10% resazurin for 4 h. At the end of this period, the absorbance was measured at 570 nm (λ1) and at 600 nm (λ2) (Multiskan™ FC Microplate Photometer, Thermofisher). The experiment was performed in triplicate and the differences between the two wavelengths (λ1–λ2) were calculated. The results were expressed in % of cell viability in relation to control and analyzed in GraphPad Prism® 6.0.

`CCCNC(C)C(=O)Nc1c(C)csc1C(=O)OC` (stereo not drawn) [ATC, Articaine hydrochloride] was tested, and the “2-Ketovaline, variation in relation to control” value (SH-SY5Y cells [1]; IC10, 24 h) was 24.7%, the “2-Oxoisoleucine, variation in relation to control” value (SH-SY5Y cells [1]; IC10, 24 h) was 33.8% and the “ATP + ADP, variation in relation to control” value (SH-SY5Y cells [1]; IC10, 24 h) was -8.0%. For the same compound, the “Alanine, variation in relation to control” value (SH-SY5Y cells [1]; IC10, 24 h) was 0.0%, the “Asparagine, variation in relation to control” value (SH-SY5Y cells [1]; IC10, 24 h) was -24.6% and the “Aspartate, variation in relation to control” value (SH-SY5Y cells [1]; IC10, 24 h) was -17.2%. For the same compound, the “Creatine, variation in relation to control” value (SH-SY5Y cells [1]; IC10, 24 h) was 9.0%, the “Cystathionine, variation in relation to control” value (SH-SY5Y cells [1]; IC10, 24 h) was 10.9% and the “Formate, variation in relation to control” value (SH-SY5Y cells [1]; IC10, 24 h) was 0.0%. The “Glutamate, variation in relation to control” value (SH-SY5Y cells [1]; IC10, 24 h) was -6.3%, the “Glutamine, variation in relation to control” value (SH-SY5Y cells [1]; IC10, 24 h) was -10.8% and the “Glycerophosphocholine, variation in relation to control” value (SH-SY5Y cells [1]; IC10, 24 h) was -11.3%. For the same compound, the “Glycine, variation in relation to control” value (SH-SY5Y cells [1]; IC10, 24 h) was 0.0%, the “Histidine, variation in relation to control” value (SH-SY5Y cells [1]; IC10, 24 h) was 29.6% and the “Isobutyrate, variation in relation to control” value (SH-SY5Y cells [1]; IC10, 24 h) was 0.0%. The “Isoleucine, variation in relation to control” value (SH-SY5Y cells [1]; IC10, 24 h) was 30.5%, the “Lactate, variation in relation to control” value (SH-SY5Y cells [1]; IC10, 24 h) was 0.0% and the “Leucine, variation in relation to control” value (SH-SY5Y cells [1]; IC10, 24 h) was 39.9%. For the same compound, the “NAD+, variation in relation to control” value (SH-SY5Y cells [1]; IC10, 24 h) was 0.0%, the “Panthothenic, variation in relation to control” value (SH-SY5Y cells [1]; IC10, 24 h) was 42.7% and the “Phenylalanine, variation in relation to control” value (SH-SY5Y cells [1]; IC10, 24 h) was 43.6%. For the same compound, the “Phosphocholine, variation in relation to control” value (SH-SY5Y cells [1]; IC10, 24 h) was 0.0%, the “Phosphocreatine, variation in relation to control” value (SH-SY5Y cells [1]; IC10, 24 h) was 0.0% and the “Proline, variation in relation to control” value (SH-SY5Y cells [1]; IC10, 24 h) was 0.0%. For the same compound, the “UDP-GlcNAc, variation in relation to control” value (SH-SY5Y cells [1]; IC10, 24 h) was -18.7%, the “Valine, variation in relation to control” value (SH-SY5Y cells [1]; IC10, 24 h) was 27.2% and the “beta-Alanine, variation in relation to control” value (SH-SY5Y cells [1]; IC10, 24 h) was -7.4%. For the same compound, the “myo-Inositol, variation in relation to control” value (SH-SY5Y cells [1]; IC10, 24 h) was -19.0%, the “2-Ketovaline, variation in relation to control” value (SH-SY5Y cells [1]; IC50, 24 h) was 28.3% and the “2-Oxoisoleucine, variation in relation to control” value (SH-SY5Y cells [1]; IC50, 24 h) was 34.4%. The “ATP + ADP, variation in relation to control” value (SH-SY5Y cells [1]; IC50, 24 h) was -14.0%, the “Alanine, variation in relation to control” value (SH-SY5Y cells [1]; IC50, 24 h) was 21.3% and the “Asparagine, variation in relation to control” value (SH-SY5Y cells [1]; IC50, 24 h) was 26.5%. The “Aspartate, variation in relation to control” value (SH-SY5Y cells [1]; IC50, 24 h) was 23.7%, the “Creatine, variation in relation to control” value (SH-SY5Y cells [1]; IC50, 24 h) was 14.7% and the “Cystathionine, variation in relation to control” value (SH-SY5Y cells [1]; IC50, 24 h) was 0.0%. The “Formate, variation in relation to control” value (SH-SY5Y cells [1]; IC50, 24 h) was 40.5%, the “Glutamate, variation in relation to control” value (SH-SY5Y cells [1]; IC50, 24 h) was 25.8% and the “Glutamine, variation in relation to control” value (SH-SY5Y cells [1]; IC50, 24 h) was 17.8%. The “Glycerophosphocholine, variation in relation to control” value (SH-SY5Y cells [1]; IC50, 24 h) was -75.7%, the “Glycine, variation in relation to control” value (SH-SY5Y cells [1]; IC50, 24 h) was 42.8% and the “Histidine, variation in relation to control” value (SH-SY5Y cells [1]; IC50, 24 h) was 37.5%. The “Isobutyrate, variation in relation to control” value (SH-SY5Y cells [1]; IC50, 24 h) was -78.2%, the “Isoleucine, variation in relation to control” value (SH-SY5Y cells [1]; IC50, 24 h) was 44.5% and the “Lactate, variation in relation to control” value (SH-SY5Y cells [1]; IC50, 24 h) was -17.5%. The “Leucine, variation in relation to control” value (SH-SY5Y cells [1]; IC50, 24 h) was 60.3%, the “NAD+, variation in relation to control” value (SH-SY5Y cells [1]; IC50, 24 h) was 11.9% and the “Panthothenic, variation in relation to control” value (SH-SY5Y cells [1]; IC50, 24 h) was 40.0%. For the same compound, the “Phenylalanine, variation in relation to control” value (SH-SY5Y cells [1]; IC50, 24 h) was 50.2%, the “Phosphocholine, variation in relation to control” value (SH-SY5Y cells [1]; IC50, 24 h) was 0.0% and the “Phosphocreatine, variation in relation to control” value (SH-SY5Y cells [1]; IC50, 24 h) was -18.9%. The “Proline, variation in relation to control” value (SH-SY5Y cells [1]; IC50, 24 h) was -17.8%, the “UDP-GlcNAc, variation in relation to control” value (SH-SY5Y cells [1]; IC50, 24 h) was -85.9% and the “Valine, variation in relation to control” value (SH-SY5Y cells [1]; IC50, 24 h) was 44.8%. For the same compound, the “beta-Alanine, variation in relation to control” value (SH-SY5Y cells [1]; IC50, 24 h) was -60.7%, the “myo-Inositol, variation in relation to control” value (SH-SY5Y cells [1]; IC50, 24 h) was -42.6% and the “intracellular glutamate level (in words)” value (SH-SY5Y cells [1]; IC50, 24 h, vs control) was “increased”. For the same compound, the “intracellular phosphocholine level (in words)” value (SH-SY5Y cells [1]; IC50, 24 h, vs control) was “not altered”, the pyruvate consumption (SH-SY5Y cells [2]; IC10, 24 h) was “increased significantly” and the pyruvate consumption (SH-SY5Y cells [2]; IC50, 24 h) was “no difference to controls”. For the same compound, the “IC10 (concentration reducing cell viability by 10%)” value ([3]; 24 h exposure) was 1.2 mM, the IC50 ([3]; 20 min, 20 min exposure) was greater than 10 mM and the IC50 ([3]; 1 h exposure) was greater than 10 mM. It also gave an IC50 ([3]; 4 h exposure) of 5.4 ± 0.3 mM, an IC50 ([3]; 24 h exposure) of 3 ± 0.2 mM and an IC50 ([3]; shortest exposure durations (20 min and 1 h)) greater than 10 mM.
